{
  "source": "PubChem BioAssay AID1259409",
  "about": "(Chemical Carcinogenesis Research Information System (CCRIS), 2018)",
  "origin": "cited, not measured here",
  "tested_on": "rodent chemically induced tumor inhibition, incidence and multiplicity",
  "assay": "CCRIS tumor inhibitor studies",
  "conditions": "Species: RAT",
  "data": [
    {"smiles": "O=C(O)O", "values": [
      {"measurement": "tumour outcome (control, treated, inhibition, significance)", "setting": "Carcinogen: AZOXYMETHANE, 25843-45-2, Dose [Inhibitor]: 0, 2% IN DIET FOR 13 WK BEGINNING 36 WK POST LAST CARCINOGEN DOSE (STUDY DURATION: 49 WK), Route [Inhibitor]: ORAL, Strain/Sex: F344/MALE, Target Tissue: Type of Lesion: COLON: ADENOCARCINOMA, Dose [Carcinogen]: 12 MG/KG BW IN 0.9% SALINE TWICE, Promoter: CHOLIC ACID, 81-25-4", "result": "26%, 31%, -19%, not significant"},
      {"measurement": "tumour outcome (control, treated, inhibition, significance)", "setting": "Carcinogen: AZOXYMETHANE, 25843-45-2, Dose [Inhibitor]: 0, 2% IN DIET FOR 13 WK BEGINNING 36 WK POST LAST CARCINOGEN DOSE (STUDY DURATION: 49 WK), Route [Inhibitor]: ORAL, Strain/Sex: F344/MALE, Target Tissue: Type of Lesion: COLON: ADENOMA, Dose [Carcinogen]: 12 MG/KG BW IN 0.9% SALINE TWICE, Promoter: CHOLIC ACID, 81-25-4", "result": "81%, 89%, -10%, not significant"},
      {"measurement": "tumour outcome (control, treated, inhibition, significance)", "setting": "Carcinogen: AZOXYMETHANE, 25843-45-2, Dose [Inhibitor]: 0, 2% IN DIET FOR 13 WK BEGINNING 36 WK POST LAST CARCINOGEN DOSE (STUDY DURATION: 49 WK), Route [Inhibitor]: ORAL, Strain/Sex: F344/MALE, Target Tissue: Type of Lesion: SMALL INTESTINE: ADENOCARCINOMA, Dose [Carcinogen]: 12 MG/KG BW IN 0.9% SALINE TWICE, Promoter: CHOLIC ACID, 81-25-4", "result": "23%, 14%, 39%, not significant"},
      {"measurement": "tumour outcome (control, treated, inhibition, significance)", "setting": "Carcinogen: AZOXYMETHANE, 25843-45-2, Dose [Inhibitor]: 0, 2% IN DIET FOR 13 WK BEGINNING 36 WK POST LAST CARCINOGEN DOSE (STUDY DURATION: 49 WK), Route [Inhibitor]: ORAL, Strain/Sex: F344/MALE, Target Tissue: Type of Lesion: SMALL INTESTINE: ADENOMA, Dose [Carcinogen]: 12 MG/KG BW IN 0.9% SALINE TWICE, Promoter: CHOLIC ACID, 81-25-4", "result": "17%, 14%, 18%, not significant"},
      {"measurement": "tumour outcome (control, treated, inhibition, significance)", "setting": "Carcinogen: AZOXYMETHANE, 25843-45-2, Dose [Inhibitor]: 0, 2% IN DIET FOR 34 WK BEGINNING 1 WK POST LAST CARCINOGEN DOSE (STUDY DURATION: 49 WK), Route [Inhibitor]: ORAL, Strain/Sex: F344/MALE, Target Tissue: Type of Lesion: COLON: ADENOCARCINOMA, Dose [Carcinogen]: 12 MG/KG BW IN 0.9% SALINE TWICE, Promoter: CHOLIC ACID, 81-25-4", "result": "26%, 18%, 31%, not significant"},
      {"measurement": "tumour outcome (control, treated, inhibition, significance)", "setting": "Carcinogen: AZOXYMETHANE, 25843-45-2, Dose [Inhibitor]: 0, 2% IN DIET FOR 34 WK BEGINNING 1 WK POST LAST CARCINOGEN DOSE (STUDY DURATION: 49 WK), Route [Inhibitor]: ORAL, Strain/Sex: F344/MALE, Target Tissue: Type of Lesion: COLON: ADENOMA, Dose [Carcinogen]: 12 MG/KG BW IN 0.9% SALINE TWICE, Promoter: CHOLIC ACID, 81-25-4", "result": "81%, 59%, 27%, p<0.05"},
      {"measurement": "tumour outcome (control, treated, inhibition, significance)", "setting": "Carcinogen: AZOXYMETHANE, 25843-45-2, Dose [Inhibitor]: 0, 2% IN DIET FOR 34 WK BEGINNING 1 WK POST LAST CARCINOGEN DOSE (STUDY DURATION: 49 WK), Route [Inhibitor]: ORAL, Strain/Sex: F344/MALE, Target Tissue: Type of Lesion: SMALL INTESTINE: ADENOCARCINOMA, Dose [Carcinogen]: 12 MG/KG BW IN 0.9% SALINE TWICE, Promoter: CHOLIC ACID, 81-25-4", "result": "23%, 16%, 30%, not significant"},
      {"measurement": "tumour outcome (control, treated, inhibition, significance)", "setting": "Carcinogen: AZOXYMETHANE, 25843-45-2, Dose [Inhibitor]: 0, 2% IN DIET FOR 34 WK BEGINNING 1 WK POST LAST CARCINOGEN DOSE (STUDY DURATION: 49 WK), Route [Inhibitor]: ORAL, Strain/Sex: F344/MALE, Target Tissue: Type of Lesion: SMALL INTESTINE: ADENOMA, Dose [Carcinogen]: 12 MG/KG BW IN 0.9% SALINE TWICE, Promoter: CHOLIC ACID, 81-25-4", "result": "17%, 7%, 59%, not significant"},
      {"measurement": "tumour outcome (control, treated, inhibition, significance)", "setting": "Carcinogen: N-BUTYL-N-(4-HYDROXYBUTYL)NITROSAMINE, 3817-11-6, Dose [Inhibitor]: 5% DIET DAILY FOR 34 WK STARTING AFTER CARCINOGEN TREATMENT (STUDY DURATION: 38 WK), Route [Inhibitor]: ORAL, Strain/Sex: F344/MALE, Target Tissue: Type of Lesion: URINARY BLADDER: PAPILLOMA, Dose [Carcinogen]: 0.01% IN DRINKING WATER FOR 4 WK, Promoter: NONE USED", "result": "33%, 37%, -12%, not significant"},
      {"measurement": "tumour outcome (control, treated, inhibition, significance)", "setting": "Carcinogen: N-METHYL-N'-NITRO-N-NITROSOGUANIDINE, 70-25-7, Dose [Inhibitor]: 0, 7.5% IN DIET FOR FIRST 20 WK THEN BASAL DIET FOR DURATION OF STUDY (STUDY DURATION: 40 WK), Route [Inhibitor]: ORAL, Strain/Sex: WISTAR/MALE, Target Tissue: Type of Lesion: GLANDULAR STOMACH: ADENOCARCINOMA, Dose [Carcinogen]: 100 MG/L IN DRINKING WATER FOR FIRST 20 WK, Promoter: NONE USED", "result": "3/20 (15%), 3/19 (16%), -7%, not significant"},
      {"measurement": "tumour outcome (control, treated, inhibition, significance)", "setting": "Carcinogen: N-NITROSOMETHYLBENZYLAMINE, 937-40-6, Dose [Inhibitor]: 0, 20000 PPM IN DIET FOR DURATION OF STUDY BEGINNING 1 WK POST CARCINOGEN TREATMENT (STUDY DURATION: 25 WK), Route [Inhibitor]: ORAL, Strain/Sex: F344/MALE, Target Tissue: Type of Lesion: ESOPHAGUS: TUMOR, Dose [Carcinogen]: 1 MG/KG 3/WK FOR 5 WK, Promoter: NONE USED", "result": "15/15 (100%), 14/15 (93%), 7%, not significant"},
      {"measurement": "tumour outcome (control, treated, inhibition, significance)", "setting": "Carcinogen: N-NITROSOMETHYLBENZYLAMINE, 937-40-6, Dose [Inhibitor]: 0, 20000 PPM IN DIET FOR DURATION OF STUDY BEGINNING 2 WK PRIOR TO CARCINOGEN TREATMENT (STUDY DURATION: 25 WK), Route [Inhibitor]: ORAL, Strain/Sex: F344/MALE, Target Tissue: Type of Lesion: ESOPHAGUS: TUMOR, Dose [Carcinogen]: 1 MG/KG 3/WK FOR 5 WK, Promoter: NONE USED", "result": "15/15 (100%), 13/15 (87%), 13%, not significant"},
      {"measurement": "tumour outcome (control, treated, inhibition, significance)", "setting": "Dose [Inhibitor]: 0, 6.2 MG, 2 INJECTIONS ONCE INTO EACH POLE OF RIGHT KIDNEY ADMINISTERED WITH CARCINOGEN (STUDY DURATION: 109 WK), Route [Inhibitor]: INTRARENAL, Strain/Sex: F344/NCR/MALE, Target Tissue: Type of Lesion: KIDNEY: TUMOR, Dose [Carcinogen]: 5 MG, 2 INJECTIONS ONCE INTO EACH POLE OF RIGHT KIDNEY, Promoter: NONE USED", "result": "25/40 (63%), 4/20 (20%), 68%, not calculated"},
      {"measurement": "tumour outcome (control, treated, inhibition, significance)", "setting": "Dose [Inhibitor]: 0, 7.5 UMOL (MG) INJECTED WITH CARCINOGEN INTO THIGH OF BOTH HIND LIMBS (STUDY DURATION: 79 WK), Route [Inhibitor]: INTRAMUSCULAR, Strain/Sex: F344/MALE, Target Tissue: Type of Lesion: INJECTION SITE: SARCOMA, Dose [Carcinogen]: 2.5 MG PER SITE INJECTED INTO THIGH OF BOTH HIND LIMBS ONCE, Promoter: NONE USED", "result": "100%, 100%, 0%, not significant"},
      {"measurement": "tumour outcome (control, treated, inhibition, significance)", "setting": "Dose [Inhibitor]: 0, 15.5 UMOL (MG) INJECTED WITH CARCINOGEN INTO THIGH OF BOTH HIND LIMBS (STUDY DURATION: 79 WK), Route [Inhibitor]: INTRAMUSCULAR, Strain/Sex: F344/MALE, Target Tissue: Type of Lesion: INJECTION SITE: SARCOMA, Dose [Carcinogen]: 2.5 MG PER SITE INJECTED INTO THIGH OF BOTH HIND LIMBS ONCE, Promoter: NONE USED", "result": "100%, 95%, 5%, not significant"},
      {"measurement": "tumour outcome (control, treated, inhibition, significance)", "setting": "Dose [Inhibitor]: 0, 30 UMOL (MG) INJECTED WITH CARCINOGEN INTO THIGH OF BOTH HIND LIMBS (STUDY DURATION: 79 WK), Route [Inhibitor]: INTRAMUSCULAR, Strain/Sex: F344/MALE, Target Tissue: Type of Lesion: INJECTION SITE: SARCOMA, Dose [Carcinogen]: 2.5 MG PER SITE INJECTED INTO THIGH OF BOTH HIND LIMBS ONCE, Promoter: NONE USED", "result": "100%, 55%, 45%, not calculated"},
      {"measurement": "tumour outcome (control, treated, inhibition, significance)", "setting": "Dose [Inhibitor]: 0, 60 UMOL (MG) INJECTED WITH CARCINOGEN INTO THIGH OF BOTH HIND LIMBS (STUDY DURATION: 79 WK), Route [Inhibitor]: INTRAMUSCULAR, Strain/Sex: F344/MALE, Target Tissue: Type of Lesion: INJECTION SITE: SARCOMA, Dose [Carcinogen]: 2.5 MG PER SITE INJECTED INTO THIGH OF BOTH HIND LIMBS ONCE, Promoter: NONE USED", "result": "100%, 60%, 40%, not significant"},
      {"measurement": "tumour outcome (control, treated, inhibition, significance)", "setting": "Dose [Inhibitor]: 0, 120 UMOL (MG) INJECTED INTO NAPE OF NECK (STUDY DURATION: 79 WK), Route [Inhibitor]: SUBCUTANEOUS, Strain/Sex: F344/MALE, Target Tissue: Type of Lesion: INJECTION SITE: SARCOMA, Dose [Carcinogen]: 2.5 MG PER SITE INJECTED INTO THIGH OF BOTH HIND LIMBS, Promoter: NONE USED", "result": "100%, 100%, 0%, not significant"},
      {"measurement": "tumour outcome (control, treated, inhibition, significance)", "setting": "Dose [Inhibitor]: 0, 120 UMOL (MG) INJECTED WITH CARCINOGEN INTO THIGH OF BOTH HIND LIMBS (STUDY DURATION: 79 WK), Route [Inhibitor]: INTRAMUSCULAR, Strain/Sex: F344/MALE, Target Tissue: Type of Lesion: INJECTION SITE: SARCOMA, Dose [Carcinogen]: 2.5 MG PER SITE INJECTED INTO THIGH OF BOTH HIND LIMBS, Promoter: NONE USED", "result": "100%, 55%, 45%, not calculated"}
    ]}
  ]
}
